From patent US4923878A, “Quinolizine sulfonamides used against certain neoplastic disease states” (Merck & Co., Inc., priority 1988, dated 1990) come the findings set out here.

Broadly, the IC50 is the midpoint of a concentration-inhibition curve.

The test system of one assay is A498. Nature of the assay: MTT-microculture tetrazolium assay, growth inhibition of renal A498 cells. In kind it is cell-based. As to conditions: Homo sapiens, 144 h; Renal cell line A498; 6 days at 37° C.; 0.5% DMSO. The text has this: (§1) Tests carried out in accordance with the procedures described in Cancer Research 48, 589-601, February 1988, Feasibility of Drug Screening with Panels of Human Tumor Cell Lines Using a Microculture Tetrazolium Assay--Shoemaker et al., and Cancer Research 48, 4827-4833, September 1988, Evaluation of a Soluble Tetrazolium/Formazan Assay for Cell Growth and Drug Sensitivity in Culture using Human and other Tumor Cell Lines--Shoemaker et al. A brief description of this procedure follows. For further details refer to the above identified articles.
(§2) The procedure was carried out on cell lines from various disease types. Cell lines were maintained as stocks in RPMI 1640 (Quality Biological, Gaithersburg, Md.) supplemented with 10% fetal bovine serum (Sterile Systems, Logon, UT) and 2mM L-glutamine (Central Medium Laboratory, NCI FCRF). Cell cultures were passaged once or twice weekly using trypsin-EDTA(Central Medium Laboratory, NCI-FCRF) to detach the cells from their culture flasks. […]
(§3) Cellular growth in the presence or absence of the test compound was determined using the MTT-microculture tetrazolium assay. In the MTT assay rapidly growing cells are harvested, counted and inoculated at the appropriate concentrations (100-μl volume) into 96-well microtiter plates using a multichannel pipet. […]
A general note: Formazan colour is commonly taken as a measure of viable cells.

The test system of assay [1] is cell lines derived from renal carcinomas. The assay can be described thus: MTT-microculture tetrazolium assay, growth inhibition of cell lines derived from renal carcinomas. In kind it is cell-based, human. The conditions noted are these: at the indicated concentrations; 6 days at 37° C.
From the text: as §1, §2, §3

The subject of the next assay is SN-12KI. The assay can be described thus: MTT-microculture tetrazolium assay, growth inhibition of renal SN-12KI cells. It counts as cell-based. As to conditions: Homo sapiens, 144 h; Renal cell line SN-12KI; 6 days at 37° C.; 0.5% DMSO.
From the text: as §1, §2, §3

A further assay concerns A704. The assay can be described thus: MTT-microculture tetrazolium assay, growth inhibition of renal A704 cells. It counts as cell-based. The conditions noted are these: Homo sapiens, 144 h; Renal cell line A704; 6 days at 37° C.; 0.5% DMSO.
From the text: as §1, §2, §3

Each structure is given as a SMILES string.

As for `CS(=O)(=O)NCCN[C@@H]1CCN2CCc3c(oc4ccccc34)[C@@H]2C1` (relative stereo) [(2RS,12bSR)-N-[2-(1,3,4,6,7,12b-hexahydro-2H-benzo[b]furo[2,3-a]quinolizin-2-yl)]-N-2-((methanesulfonyl)ethyl)amine], the half-maximal inhibitory concentration (IC50) with A498 is 1600 nM; in the assay on SN-12KI, 6300 nM; in the assay on A704, 160 nM. Further, the “growth inhibition of cell lines derived from renal carcinomas (in words)” value in assay [1] is reported as “selectively inhibit the growth of cell lines derived from renal carcinomas”.
